Measurements from patent US7816074B2, “α4 β2 δGABA-A receptors as a strategy for PMS and alcoholism” (priority 2003, dated 2010).

Legend:
GABAR α4 subunit = assay: Western blot of α4 subunit in hippocampus after steroid and ethanol administration; type: in vivo, rat
Experimental: Animals were administered steroids using one of two protocols: (i) For the 48 hour steroid administration protocol, animals were injected with 10 mg/kg 3α, 5β THP in oil, i.p., on a daily basis for three days and sacrificed 1-2 hour following the final injection. Controls were injected with oil vehicle. […] At this time, the capsule was removed and the animals were injected with 17 β estradiol (2 μgs/animal) in order to reset their cycle. Animals were sacrificed 24 hours later. […] In all cases, implantation and removal of capsules were performed under halothane anesthesia. […] Therefore, this study employed the 5β isomer of the steroid.
In some groups of animals, either ethanol (0.5 g/kg in saline) or saline vehicle was administered i.p. (3×, every 40 minutes) for the final 2 hours of the respective steroid administration or withdrawal paradigm. The use of multiple injections of low doses of ethanol would approximate ethanol consumption in the human more closely than would a single injection. For the 48 hour steroid administration paradigm, animals received their first ethanol injection immediately after the steroid injection, and subsequent injections at 40 minute intervals. In all cases, animals were sacrificed 40 minutes after the final ethanol injection (2 hours after the first ethanol injection and final steroid injection). All animal protocols were carried out with the approval of the Institutional Animal Care and Use Committee.
Hippocampi removed from steroid or vehicle-treated animals were homogenized, and membranes prepared as previously described (65). Following electrophoresis on 8% SDS polyacrylamide gels, membranes were transferred to a nitrocellulose membrane (Bio-Rad, Hercules, Calif.). α4 subunit levels were detected by evaluating the band density at 67 kDa after probing with a polyclonal antibody (64). Membranes were incubated for 1-2 hours at room temperature with a 1:5000 dilution of horseradish peroxidase-conjugated donkey anti-rabbit IgG (Amersham, Arlington Heights, Ill.), and visualized with enhanced chemiluminescence with varying concentrations of protein in the linear range. Immunoreactive band densities were quantified using a CCD camera (UMAX Scanner) and one-Dscan software, which uses multiple Gaussian fits to achieve accurate band density profiles.

[1] = tested on: GABAA receptors of acutely isolated CA1 hippocampal pyramidal cells; conditions: ethanol 1-3 mM, but not higher (>10 mM); after progesterone withdrawal (ref. 67); cited from earlier work
[2] = tested on: α1β2δ receptors (oocytes injected with α1+β2+δ); type: cell-based, rat α1, rat β2, human δ, expressed in Xenopus laevis oocytes; conditions: oocytes injected with α1+β2+δ
Source text: Plasmids with inserts encoding GABAA receptor subunit sequence for rat α1 (62), rat β2 (83), rat α2 (62), rat α5 (62), mouse α4 (37), mouse β3 (82), rat β1 (83), rat γ2S (63), human δ (12), and human ε (11) were produced by subcloning each separately into an appropriate cloning vehicle such as PCDM8, pCDNA3.1 or pGHEMHE vectors (Invitrogen, Carlsbad Calif.) using a T7 promoter and standard subcloning techniques (59). Plasmids were linearized with an appropriate restriction enzyme at a site 3′ to the insert and cRNAs were synthesized using T3 or T7 polymerase (mMessage mMachine, Ambion, Tex.). The size of the cRNA was verified and RNA was quantified by ethidium bromide staining after electrophoresis on 1% agarose gels.
The preparation, injection, and maintenance of oocytes were carried out as described previously (78). Oocytes were injected with receptor subunit cRNAs (2 to 20 ng) in the following ratios: α1:β1:γ2S, α1:β2:γ2S and α1:β1:ε1, 1:1:1; α2:β1:γ2S, α5:β1:γ2S, α4:β1:γ2S, and α4:β2:γ2S, 10:1:1; α4:β1:δ, α4:β2:δ, α4:β3δ, 10:1:10; α1:β2:δ, 1:1:10 or 1:0.5:3; α1:β1:δ, 1:1:10 or 1:0.5:3; α2:β1:δ and α2:β2:δ, 1:0.5:3; α1:β1, α1:β2, α2:β1, α2:β2, β2:γ2S and α4δ, 1:1, α4:β1, α4:β2, α4:β3, 10:1, β2δ, 1:10.
Voltage-clamp recording was carried out 1 to 3 days after injection of cRNAs. Electrodes were filled with 3 M KCl and had resistances of 0.4-4 MΩ. Oocytes were positioned in a small Perspex chamber and continuously superfused with a saline solution (100 mM NaCl, 2 mM KCl, 1.8 mM CaCl2, 10 mM HEPES, pH 7.5). Agonists and modulators were both applied in the same saline solution. Oocytes were voltage-clamped at −70 mV and macroscopic currents were recorded with a two-electrode voltage-clamp using a Warner Instruments OC-725 amplifier as described previously (79). Currents were recorded on a chart recorder or by using Axograph on a Macintosh computer.
Other subunits (α1, α2, β1, β2) were tested for co-expression with the δ subunit. […]

CCO [ethanol]
α4 expression (GABAR α4 subunit; 2 hour ethanol administration after progesterone withdrawal): unchanged from control levels | α4 expression in hippocampus (GABAR α4 subunit; ethanol 0.5 g/kg i.p. across final 2 hours of 48 h 3α,5β-THP administration): reversed the increase | α4 levels (GABAR α4 subunit; ethanol administered without steroid): no significant effect | effect on GABA-gated current of isolated hippocampal neurons [1]: potentiated | responses to GABA in presence of alcohol, % of control [2]: 88-95 % of control
